In paper PMC8231170, “Biphenylalkoxyamine Derivatives–Histamine H3 Receptor Ligands with Butyrylcholinesterase Inhibitory Activity” (Molecules, 2021):
Entries after “also recorded” stand apart in the source; their conditions may differ. Like-named read-outs stand apart in the source and are kept apart here.

What was measured:
[1] = biological target: human acetylcholinesterase; conditions: read-out: hAChE IC50; cited from earlier work
[2] = biological target: human butyrylcholineserase; conditions: read-out: hBuChE IC50; cited from earlier work
[3] = biological target: Fatty Acid Amide Hydrolase from rat brain membranes; conditions: read-out: rFAAH IC50; cited from earlier work
human MAO B = biological target: T1, human MAO B (Homo sapiens, UniProt P27338); experiment: fluorometric Monoamine Oxidase assay; assay type: biochemical; conditions: for inhibition at 1 µM: read-out: hMAO B %Inh. (converted)
T1 construct: purchased Sigma Aldrich M7441
T1 sequence (P27338 1-520): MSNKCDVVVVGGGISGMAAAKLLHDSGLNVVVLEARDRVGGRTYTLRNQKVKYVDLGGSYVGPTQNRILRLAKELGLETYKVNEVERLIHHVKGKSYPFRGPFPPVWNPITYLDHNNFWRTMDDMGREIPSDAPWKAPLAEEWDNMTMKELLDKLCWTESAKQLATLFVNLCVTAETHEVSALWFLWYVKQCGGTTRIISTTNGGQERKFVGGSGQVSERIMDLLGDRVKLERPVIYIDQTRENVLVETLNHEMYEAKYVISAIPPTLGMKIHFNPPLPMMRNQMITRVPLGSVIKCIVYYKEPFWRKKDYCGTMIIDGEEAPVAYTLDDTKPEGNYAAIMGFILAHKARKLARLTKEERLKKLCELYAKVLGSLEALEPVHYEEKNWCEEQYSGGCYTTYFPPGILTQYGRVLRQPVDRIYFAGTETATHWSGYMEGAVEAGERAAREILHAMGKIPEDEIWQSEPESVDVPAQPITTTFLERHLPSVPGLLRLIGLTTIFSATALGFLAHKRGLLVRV
Description: Inhibition of human MAO B (hMAO B) was evaluated using a fluorometric Monoamine Oxidase assay as we described previously.
Inhibition of hMAO B was evaluated using fluorometric Monoamine Oxidase assay as described by Łażewska et al.. Recombinant MAO B was purchased from Sigma Aldrich (M7441). […] The assay was carried out in 96-well plate. Tested compounds dissolved in DMSO (1 μM) were added to wells that contained 98 µL of enzyme dilution (1 µg/well) in phosphate buffer (50 mM, pH 7.4). […] An enzymatic reaction started following addition of para-tyramine solution (200 μM). […] Each experiment was performed in duplicate.

eqBuChE = biological target: T2, eqBuChE (Equus caballus, UniProt P81908); experiment: kinetic studies of eqBuChE inhibition; assay type: biochemical; conditions: for type of eqBuChE inhibition: Lineweaver–Burk and Cornish–Bowden plots, substrate butyrylthiocholine
T2 construct: AChE was obtained from electric eel and BuChE from equine serum; purchased Sigma Aldrich; host or cells: equine serum (natural source)
T2 sequence (P81908 whole entry): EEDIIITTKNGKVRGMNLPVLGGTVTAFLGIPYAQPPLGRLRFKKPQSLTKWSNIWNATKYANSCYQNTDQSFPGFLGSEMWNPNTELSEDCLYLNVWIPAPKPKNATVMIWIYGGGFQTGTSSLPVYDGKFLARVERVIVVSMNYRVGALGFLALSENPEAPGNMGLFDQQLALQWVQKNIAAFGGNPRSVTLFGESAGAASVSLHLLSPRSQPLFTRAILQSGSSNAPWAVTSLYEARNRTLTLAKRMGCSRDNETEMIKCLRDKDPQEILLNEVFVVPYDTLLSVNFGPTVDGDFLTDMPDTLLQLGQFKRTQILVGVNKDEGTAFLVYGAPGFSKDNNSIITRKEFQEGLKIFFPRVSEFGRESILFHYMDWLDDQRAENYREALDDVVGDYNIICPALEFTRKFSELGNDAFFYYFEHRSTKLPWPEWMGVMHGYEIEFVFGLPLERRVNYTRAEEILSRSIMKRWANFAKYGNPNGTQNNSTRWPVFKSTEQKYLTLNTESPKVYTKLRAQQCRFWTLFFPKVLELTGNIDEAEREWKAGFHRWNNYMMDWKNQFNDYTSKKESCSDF
Description: Moreover, the dissociation constant (Ki), describing the binding affinity between the inhibitor and the enzyme, was determined.
EqBuChE stock solution was diluted with demineralized water prior to use, giving the final concentration of 0.027 U/mL in the wells. […] For each concentration of the target compound, all six BTC solutions were utilized to perform the assays. Vmax and Km values of the Michaelis−Menten kinetics were calculated by nonlinear regression from substrate−velocity curves. Lineweaver-Burk and Cornish-Bowden plots were calculated using linear regression in GraphPad Prism 5 (GraphPad Software, San Diego, CA, USA). Each experiment was performed in triplicate.

AChE from electric eel [4] = biological target: T3, AChE from electric eel (Electrophorus electricus, UniProt O42275); conditions: cited from earlier work
T3 construct: AChE was obtained from electric eel and BuChE from equine serum; purchased Sigma Aldrich; host or cells: electric eel (natural source)
T3 sequence (O42275 24-633): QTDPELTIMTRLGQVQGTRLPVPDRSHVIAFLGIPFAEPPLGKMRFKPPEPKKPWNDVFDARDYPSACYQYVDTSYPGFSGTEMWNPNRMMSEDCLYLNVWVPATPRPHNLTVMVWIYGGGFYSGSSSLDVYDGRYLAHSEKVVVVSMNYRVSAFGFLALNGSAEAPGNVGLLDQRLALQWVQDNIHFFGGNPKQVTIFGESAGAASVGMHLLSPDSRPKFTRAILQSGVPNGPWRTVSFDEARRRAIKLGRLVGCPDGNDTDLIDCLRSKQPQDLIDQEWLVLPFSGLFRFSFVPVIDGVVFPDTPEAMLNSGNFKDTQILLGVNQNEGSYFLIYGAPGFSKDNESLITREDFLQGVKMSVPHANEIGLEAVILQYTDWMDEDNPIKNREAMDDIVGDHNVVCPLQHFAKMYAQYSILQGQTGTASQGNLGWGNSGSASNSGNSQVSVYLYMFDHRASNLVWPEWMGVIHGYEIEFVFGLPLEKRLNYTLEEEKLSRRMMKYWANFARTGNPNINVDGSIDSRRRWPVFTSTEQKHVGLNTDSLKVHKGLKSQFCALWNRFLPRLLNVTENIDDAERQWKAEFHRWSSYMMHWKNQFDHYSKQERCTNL

BuChE from equine serum [5] = biological target: T4, BuChE from equine serum (Equus caballus, UniProt P81908); conditions: read-out: eqBuChE IC50 Mean ± SEM; cited from earlier work
T4 construct: AChE was obtained from electric eel and BuChE from equine serum; purchased Sigma Aldrich; host or cells: equine serum (natural source)
T4 sequence (P81908 whole entry): as the sequence (P81908 whole entry) above

AChE from electric eel [6] = biological target: T3, AChE from electric eel; experiment: eeAChE inhibition, Ellman's method; assay type: biochemical; conditions: read-out: eeAChE % Inh.
Description: The inhibitory activities of the tested compounds against cholinesterases were evaluated by Ellman’s method. AChE was obtained from electric eel and BuChE from equine serum. Donepezil and rivastigmine were used as reference compounds. […]. Inhibitory activities of the tested compounds against cholinesterases were measured using a spectrophotometric method modified for 96-well microplates as described recently.
[…]. First, all compounds were screened at the concentration of 10 μM. The changes in absorbance were measured at 412 nm, using a microplate reader (EnSpire Multimode; PerkinElmer, Waltham, MA, USA). Then, the percent of inhibition of tested enzymes for each compound was calculated. […] Each concentration was measured in triplicate. All calculations were made using nonlinear regression GraphPad Prism 5 (GraphPad Software, San Diego, CA, USA).

BuChE from equine serum [7] = biological target: T4, BuChE from equine serum; experiment: eqBuChE inhibition, Ellman's method; assay type: biochemical
Description: The inhibitory activities of the tested compounds against cholinesterases were evaluated by Ellman’s method. AChE was obtained from electric eel and BuChE from equine serum. […] Inhibitory activities of the tested compounds against cholinesterases were measured using a spectrophotometric method modified for 96-well microplates as described recently.
First, all compounds were screened at the concentration of 10 μM. […] Then, the percent of inhibition of tested enzymes for each compound was calculated. […] Each concentration was measured in triplicate. All calculations were made using nonlinear regression GraphPad Prism 5 (GraphPad Software, San Diego, CA, USA).

[8] = test system: mouse model of scopolamine-induced memory impairments; experiment: step-through Passive Avoidance Task; assay type: in vivo; conditions: mice
Description: This procedure was created for studying short-term memory as well as long-term memory. The paradigm requires the rodents to behave contrary to their innate preference for dark areas and for avoiding bright ones.
The experiments were carried out on adult male Albino Swiss mice (CD-1, 18–25 g). […] Experimental groups consisted of 6–12 animals, all the animals were used only once and they were killed by cervical dislocation immediately after the assay. Behavioral measures were scored by trained observers, which were blind to experimental conditions. Treatment of laboratory animals in the present study was in full accordance with the respective Polish regulations.
Control animals (negative control) were given an appropriate amount of vehicle (1% aqueous solution of Tween 80; i.p.) 30 min before the test.
The task was performed according to the method described previously. Briefly, the test was conducted in the apparatus with two compartments (LE872, Bioseb, France). The illuminated white compartment (20 cm × 21 cm × 20 cm, 1000 lx) was separated by an automated sliding gate with the smaller dark compartment (7.3 cm × 7.5 cm × 14 cm, 10 lx) equipped with an electric grid floor. For acquisition session, mice were first placed individually in the white compartment and after 30 s the gate to the smaller compartment was opened. Immediately after entering into the dark compartment, the gate was closed and the mouse was punished by an unavoidable electric foot shock (0.8 mA for 2 s). […] Next day (24 h later), the pretested animals were placed again into the bright compartment. […] The latency time to cross through the gate between the compartments was measured.

histamine receptors: H1 = conditions: cited from earlier work
histamine receptors: H4 = conditions: cited from earlier work
[9] = up to 10 µM; cited from earlier work
[10] = previous in vitro studies; cited from earlier work
hH3R = conditions: cited from earlier work

For `Cc1[nH]c2ccccc2c1CC(=O)NCCC1CCN(Cc2ccccc2)CC1` [Compound 1], the IC50 [1] is given as 7270 nM and the IC50 [2] is given as 1.09 nM.

For `O=C(NCCCCCc1ccccc1)Oc1cccc(Cn2cc(COc3ccc4ccc(=O)oc4c3)nn2)c1` [Compound 2], the IC50 [1] is given as 922 nM, the IC50 [2] is given as 43 nM and the IC50 [3] is given as 28 nM.

For `c1ccc(-c2ccc(OCCCCCCN3CCCCCC3)cc2)cc1` [Compound 5], the inhibition at 1 µM (human MAO B) was 45%, the “type of eqBuChE inhibition” value (eqBuChE) was “non-competitive type of eqBuChE inhibition” and the Ki (eqBuChE; replot of Lineweaver–Burk data, read-out: dissociation constant (Ki) for eqBuChE) was 652 nM. For the same compound, the IC50 (AChE from electric eel [4]; AChE from electric eel, read-out: eeAChE IC50 Mean ± SEM) was 2760 ± 40 nM, the “eeAChE % Inh.” value (AChE from electric eel [4]; at 10 μM) was “more than 50%” and the IC50 (BuChE from equine serum [5]) was 600 ± 10 nM.

`c1ccc(-c2ccc(OCCCCCN3CCCCCC3)cc2)cc1` [Compound 19, 1-(5-([1,1′-biphenyl]-4-yloxy)pentyl)azepane] showed an inhibition at 10 µM (AChE from electric eel [6]) of 44%, an IC50 (BuChE from equine serum [7]) of 590 ± 10 nM and an IC50 (human MAO B) of 243 ± 73 nM. For the same compound, the inhibition at 1 µM (human MAO B) was 54%, the “type of eqBuChE inhibition” value (eqBuChE) was “mixed type of enzyme inhibition; also recorded: mixed mode of enzyme inhibition” and the “latency time, retention trial” value ([8]; 1.25 mg/kg i.p. before scopolamine 1 mg/kg) was 93.5 ± 17.4 s. The “latency time, retention trial” value ([8]; 2.5 mg/kg i.p. before scopolamine 1 mg/kg) was 119.1 ± 21.2 s, the “latency time, retention trial” value ([8]; 5.0 mg/kg i.p. before scopolamine 1 mg/kg) was 129.8 ± 17.8 s and the “activity in retention trial” value ([8]; 10 mg/kg i.p. before scopolamine 1 mg/kg) was “lower activity”. The “effect on scopolamine-induced memory deficits” value ([8]; Passive Avoidance Task, listed as 19 (E153)) was “effectively alleviated memory deficits caused by scopolamine; also recorded: reversed memory impairments induced by scopolamine”, the “latency times, acquisition trial” value ([8]; i.p.) was “neither scopolamine, nor 19 nor rivastigmine significantly affected latency times” and the Ki (histamine receptors: H1) was 1300 nM. The Ki (histamine receptors: H4) was 21800 nM, the mutagenic activity [9] was “no mutagenic activity” and the “blood–brain barrier crossing” value [10] was “crosses the blood–brain barrier (BBB)”.

For `O=c1c2cc(Cl)ccc2oc2ccc(OCCCCCN3CCCCCC3)cc12` [Compound E342], the IC50 [1] is given as 120 nM, the IC50 [2] is given as 1600 nM and the Ki (hH3R) is given as 100 nM.

For `C#CCN(C)Cc1cc2cc(OCCCN3CCCCC3)ccc2n1C` [contilisant], the IC50 [1] is listed as 530 nM, the IC50 [2] is listed as 1690 nM and the Ki (hH3R) is listed as 11 nM.
